Test results: PMC3183052, “Immunoprotectivity of HLA-A2 CTL Peptides Derived from Respiratory Syncytial Virus Fusion Protein in HLA-A2 Transgenic Mouse” (PLoS ONE, 2011)

Key:
RSV-B1 = test: Body weight after live RSV challenge; format: in vivo, HLA-A*0201 transgenic C57BL/6 mice; conditions: peptide-immunized HLA-Tg B6 mice, 10^7 pfu live RSV-B1 i.n.; weight recorded daily for 9 days
Procedure: To screen the immunodominance of epitopic peptide in the induction of RSV-F specific Th1/Th2 expression, HLA-A*0201 transgenic C57BL/6 mice were anesthetized with isoflurane and immunized with 1×10^7 pfu/50 µL of rAd-F0 or rAd-LacZ or 1×10^4 live RSV B1 via the intranasal (i.n.) route. Twenty days later, the mice were given booster immunization i.n. with the same dose. After 10 days of boost, mice were sacrificed and splenocytes were isolated for the cytokine ELISPOT assay. For peptide-based vaccination, transgenic mice were immunized subcutaneously (s.c.) with 50 µg of the individual synthetic peptides emulsified in 25 µL of incomplete Freund's adjuvant (IFA) (Sigma-Aldrich) and then boosted after 10 days s.c. with the same dose of the respective peptides mixed with IFA. Mice were sacrificed 7 days after the booster and splenocytes were isolated for in vitro peptide-restimulation. […] Mice body weight was monitored daily.
Figure 3 Determination of lung viral load and gain of lost body weight. […] (A) The viral load in the lungs of individual mice was determined 4 days after challenge by real-time RT-PCR to quantitate RSV N gene expression as described in the Materials and Methods. […] (B) The body weight of each mouse was recorded daily for 9 days after virus challenge. Results are expressed as % (mean) for 5 mice in each experimental group. […]

[1] = test system: peptide-loaded dendritic cells from HLA-Tg B6 mice; test: In vitro CTL assay (CFSE/7-AAD) with pulmonary effector lymphocytes; format: cell-based, mouse; conditions: pulmonary effector lymphocytes of immunized, RSV-challenged mice; peptide-loaded CFSE-labeled DCs; E:T 10:1 and 50:1; 7-AAD/CFSE flow cytometry
Procedure: Dendritic cells (DCs) isolated from HLA-A*0201-Tg B6 mice were used as target cells for CTL assay. Briefly, tibia were isolated from 6–8 weeks old mice and rinsed with 75% alcohol before their incubation with lymphocyte culture medium (LCM, RPMI containing 5% FBS, 20 mM HEPES, 50 µM 2-mecaptoenthanol, 1× P/S). The myeloid tissues were removed from the tibia with LCM and filtrated through 40 µm cell strainer (BD Falcon). The filtrates were centrifuged at 1200 rpm for 5 minutes and the cell pellet was resuspended in 2 mL RBC lysis solution (eBioscience), and incubated for 5 minutes followed by addition of 10 mL of 1× PBS buffer to stop lysis. […]
A non-radioactive assay for cell-mediated cytotoxicity using a green fluorescent probe CFSE to label target cells in combination with 7-amino-actinomycin D (7AAD), a red fluorescent probe to label dead effectors and target cells, was used to assess the presence of RSV F protein-specific CTLs in spleens or lungs of the immunized animals. […] CFSE was measured in FL1 channel and 7-AAD in FL3 channel. The percentage of CFSE/7-AAD double positive target cells (i.e., DCs cell death) was analyzed. […]
Figure 5 Induction of pulmonary IFN-γ and CTL activity in peptide immunized transgenic mice challenged with RSV. At day 4 post RSV infection, lung homogenates were prepared and the following were measured. […]

YMLTNSELL [peptide 14, HLA-A*0201-restricted 9-mer synthetic peptide from F protein of RSV-B1 strain]
recovery of body weight loss (in words) (RSV-B1): recovered only in the last two days
CTL activity, target cell lysis [1]: efficient in target cell lysis
